Measurements taken from US20230077362A1 (CORTEVA AGRISCIENCE LLC, priority 2019, published 2023).
Read-outs that look alike come from different tables or passages of the source.

How the values were obtained:
Assay type in all cases: in vivo
[1] = system: Beet Armyworm (Spodoptera exigua) ("BAW"), second instar larvae; assay: Bioassay on beet armyworm (BAW), 128-well diet tray assay; details: Spodoptera exigua
Outline: (§1)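 Mortality (%) is scored well by well after five to seven days at 25° C. on a 14:10 light:dark regime. The value given is the mean of eight wells.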

[2] = system: Cabbage Looper (Trichoplusia ni) ("CL"), second instar larvae; assay: Bioassay on cabbage looper (CL), 128-well diet tray assay; details: Trichoplusia ni
Outline: as §1

[3] = system: Yellow Fever Mosquito "YFM" (Aedes aegypti), about 1 day-old larvae; assay: Bioassay on yellow fever mosquito (YFM), 96-well plate larval assay; details: for YFM rating: Table ABC, species YFM, mortality scored after 3 days, C = not tested, D = no activity noticed
Experimental: Example C: Bioassays on Yellow Fever Mosquito “YFM” (Aedes aegypti)
Certain molecules disclosed in this document were tested against YFM using procedures described in the following paragraph. In the reporting of the results, the “YFM Rating Table” was used (See Table Section).
Master plates containing 400 μg of a molecule dissolved in 100 μL of dimethyl sulfoxide (DMSO) (equivalent to a 4000 ppm solution) are used. A master plate of assembled molecules contains 15 μL per well. To this plate, 135 μL of a 90:10 water:acetone mixture is added to each well. A robot (Biomek® NXP Laboratory Automation Workstation) is programmed to dispense 15 μL aspirations from the master plate into an empty 96-well shallow plate (“daughter” plate). There are 6 reps (“daughter” plates) created per master. The created daughter plates are then immediately infested with YFM larvae.
The day before plates are to be treated, mosquito eggs are placed in Millipore water containing liver powder to begin hatching (4 g. into 400 mL). After the daughter plates are created using the robot, they are infested with 220 μL of the liver powder/larval mosquito mixture (about 1 day-old larvae). After plates are infested with mosquito larvae, a non-evaporative lid is used to cover the plate to reduce drying. Plates are held at room temperature for 3 days prior to grading. After 3 days, each well is observed and scored based on mortality.

[4] = system: Green Peach Aphid ("GPA") (Myzus persicae), wingless adult and nymph stages; assay: Bioassay on green peach aphid (GPA), foliar spray on infested cabbage seedlings; details: Myzus persicae, foliar, 72 h, read-out: GPA rating
Outline: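 Values are corrected % control, 100*(X−Y)/X, from live aphid counts per plant under a microscope, treated versus solvent-check plants. Four infested seedlings (20-50 GPA each) per treatment were sprayed to runoff and kept three days near 25° C at ambient RH.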

SMILES	pest or weed control at 50 µg/cm2 ([1]; read-out: BAW (Biological Results, rating)) [%]	pest or weed control at 50 µg/cm2 ([2]; read-out: CL (Biological Results, rating)) [%]	YFM (Biological Results, rating) ([3]; Yellow Fever Mosquito (Aedes aegypti) larvae, scored on mortality after 3 days, C = Not Tested)	pest or weed control at 50 µg/cm2 ([1]; read-out: BAW rating) [%]	pest or weed control at 50 µg/cm2 ([2]; read-out: CL rating) [%]	YFM rating [3]	pest or weed control at 200 µg/mL [4] [%]
Cc1ccc([N+](=O)[O-])c(N2C(=O)CS/C2=N\C(=O)Nc2ccc(-c3ncn(-c4ccc(OC(F)(F)F)cc4)n3)cc2)c1 [Compound J313, (Z)-1-(3-(5-Methyl-2-nitrophenyl)-4-oxothiazolidin-2-ylidene)-3-(4-(1-(4-(trifluoromethoxy)phenyl)-1H-1,2,4-triazol-3-yl)phenyl)urea]	50 to 100	50 to 100	B (More than 0-Less than 80)				
Cc1ccc(COCc2ccccc2Cl)c(N2C(=O)CS/C2=N\C(=O)Nc2ccc(-c3ncn(-c4ccc(OC(F)(F)F)cc4)n3)cc2F)c1 [Compound J572, (Z)-1-(3-(2-(((2-Chlorobenzyl)oxy)methyl)-5-methylphenyl)-4-oxothiazolidin-2-ylidene)-3-(2-fluoro-4-(1-(4-(trifluoromethoxy)phenyl)-1H-1,2,4-triazol-3-yl)phenyl)urea]				50 to 100	50 to 100	A (80-100)	
COC(C)c1ccc(C#N)cc1N1C(=O)CS/C1=N\C(=O)Nc1ccc(-c2cn(-c3ccc(S(=O)(=O)C(F)(F)F)cc3)cn2)cc1F (stereo not shown) [Compound J652, (Z)-1-(3-(5-Cyano-2-(1-methoxyethyl)phenyl)-4-oxothiazolidin-2-ylidene)-3-(2-fluoro-4-(1-(4-((trifluoromethyl)sulfonyl)phenyl)-1H-imidazol-4-yl)phenyl)urea]				50 to 100	50 to 100		0 to 80
O=C(/N=C1\SCC(=O)N1c1ccccc1COCC(F)(F)F)Nc1ccc(-c2ncn(-c3ccc(OC(F)(F)F)cc3)n2)cc1F [Compound J659, (Z)-1-(2-Fluoro-4-(1-(4-(trifluoromethoxy)phenyl)-1H-1,2,4-triazol-3-yl)phenyl)-3-(4-oxo-3-(2-((2,2,2-trifluoroethoxy)methyl)phenyl)thiazolidin-2-ylidene)urea]				50 to 100	50 to 100		0 to 80
CCOCc1ccc(C)cc1N1C(=O)CS/C1=N\C(=O)Nc1ccc(-c2ncn(-c3ccc(OC(F)(F)C(F)(F)F)cc3)n2)cc1F [Compound J663, (Z)-1-(3-(2-(Ethoxymethyl)-5-methylphenyl)-4-oxothiazolidin-2-ylidene)-3-(2-fluoro-4-(1-(4-(perfluoroethoxy)phenyl)-1H-1,2,4-triazol-3-yl)phenyl)urea]				50 to 100	50 to 100		0 to 80
Cc1ccc(Cc2ccc(F)cc2)c(N2C(=O)CS/C2=N\C(=O)Nc2ccc(-c3ncn(-c4ccc(C(F)(F)F)cc4)n3)cc2F)c1 [Compound J673, (Z)-1-(2-Fluoro-4-(1-(4-(trifluoromethyl)phenyl)-1H-1,2,4-triazol-3-yl)phenyl)-3-(3-(2-(4-fluorobenzyl)-5-methylphenyl)-4-oxothiazolidin-2-ylidene)urea]				50 to 100	50 to 100	A (80-100)	
Cc1ccc(Cc2cccc(F)c2)c(N2C(=O)CS/C2=N\C(=O)Nc2ccc(-c3ncn(-c4ccc(C(F)(F)F)cc4)n3)cc2F)c1 [Compound J675, (Z)-1-(2-Fluoro-4-(1-(4-(trifluoromethyl)phenyl)-1H-1,2,4-triazol-3-yl)phenyl)-3-(3-(2-(3-fluorobenzyl)-5-methylphenyl)-4-oxothiazolidin-2-ylidene)urea]				50 to 100	50 to 100	A (80-100)	
Cc1ccc(COCC(F)(F)F)c(N2C(=O)CS/C2=N\C(=O)Nc2ccc(-c3ncn(-c4ccc(C(F)F)cc4)n3)cc2C)c1 [Compound J684, (Z)-1-(4-(1-(4-(Difluoromethyl)phenyl)-1H-1,2,4-triazol-3-yl)-2-methylphenyl)-3-(3-(5-methyl-2-((2,2,2-trifluoroethoxy)methyl)phenyl)-4-oxothiazolidin-2-ylidene)urea]				50 to 100	50 to 100		0 to 80
Cc1ccc(COCC(F)(F)F)c(N2C(=O)CS/C2=N\C(=O)Nc2ccc(-c3ncn(-c4ccc(C(F)F)cc4)n3)cc2F)c1 [Compound J686, (Z)-1-(4-(1-(4-(Difluoromethyl)phenyl)-1H-1,2,4-triazol-3-yl)-2-fluorophenyl)-3-(3-(5-methyl-2-((2,2,2-trifluoroethoxy)methyl)phenyl)-4-oxothiazolidin-2-ylidene)urea]				50 to 100	50 to 100		0 to 80
Cc1ccc(Cc2ccccc2F)c(N2C(=O)CS/C2=N\C(=O)Nc2ccc(-c3ncn(-c4ccc(C(F)(F)F)cc4)n3)cc2F)c1 [Compound J708, (Z)-1-(2-Fluoro-4-(1-(4-(trifluoromethyl)phenyl)-1H-1,2,4-triazol-3-yl)phenyl)-3-(3-(2-(2-fluorobenzyl)-5-methylphenyl)-4-oxothiazolidin-2-ylidene)urea]				50 to 100	50 to 100	A (80-100)	
Cc1ccc(COCc2cc3c(C(F)(F)F)nn(C)c3s2)c(N2C(=O)CS/C2=N\C(=O)Nc2ccc(-c3ncn(-c4ccc(OC(F)(F)F)cc4)n3)cc2F)c1 [Compound J712, (Z)-1-(2-Fluoro-4-(1-(4-(trifluoromethoxy)phenyl)-1H-1,2,4-triazol-3-yl)phenyl)-3-(3-(5-methyl-2-(((1-methyl-3-(trifluoromethyl)-1H-thieno[2,3-c]pyrazol-5-yl)methoxy)methyl)phenyl)-4-oxothiazolidin-2-ylidene)urea]				50 to 100	50 to 100	A (80-100)	
Cc1cc(N2C(=O)CS/C2=N\C(=O)Nc2ccc(-c3ncn(-c4ccc(OC(F)(F)F)cc4)n3)cc2F)c(C)cc1F [Compound J714, (Z)-1-(3-(4-Fluoro-2,5-dimethylphenyl)-4-oxothiazolidin-2-ylidene)-3-(2-fluoro-4-(1-(4-(trifluoromethoxy)phenyl)-1H-1,2,4-triazol-3-yl)phenyl)urea]				50 to 100	50 to 100	A (80-100)	
O=C(/N=C1\SCC(=O)N1c1ccccc1-c1ccccc1)Nc1ccc(-c2ncn(-c3ccc(OC(F)(F)F)cc3)n2)cc1F [Compound J720, (Z)-1-(3-([1,1′-Biphenyl]-2-yl)-4-oxothiazolidin-2-ylidene)-3-(2-fluoro-4-(1-(4-(trifluoromethoxy)phenyl)-1H-1,2,4-triazol-3-yl)phenyl)urea]				50 to 100	50 to 100	A (80-100)	
O=C(/N=C1\SCC(=O)N1c1cc(C(F)(F)F)ccc1COCc1ccccc1)Nc1ccc(-c2ncn(-c3ccc(OC(F)(F)F)cc3)n2)cc1F [Compound J741, (Z)-1-(3-(2-((Benzyloxy)methyl)-5-(trifluoromethyl)phenyl)-4-oxothiazolidin-2-ylidene)-3-(2-fluoro-4-(1-(4-(trifluoromethoxy)phenyl)-1H-1,2,4-triazol-3-yl)phenyl)urea]						A (80-100)	
Cc1ccc(COCc2ccccc2OC(F)(F)F)c(N2C(=O)CS/C2=N\C(=O)Nc2ccc(-c3ncn(-c4ccc(C(F)(F)F)cc4)n3)cc2F)c1 [Compound J746, (Z)-1-(2-Fluoro-4-(1-(4-(trifluoromethyl)phenyl)-1H-1,2,4-triazol-3-yl)phenyl)-3-(3-(5-methyl-2-(((2-(trifluoromethoxy)benzyl)oxy)methyl)phenyl)-4-oxothiazolidin-2-ylidene)urea]				50 to 100		A (80-100)	
Cc1ccc(COCc2cc(C(F)(F)F)cc(C(F)(F)F)c2)c(N2C(=O)CS/C2=N\C(=O)Nc2ccc(-c3ncn(-c4ccc(C(F)(F)F)cc4)n3)cc2F)c1 [Compound J748, (Z)-1-(3-(2-(((3,5-Bis(trifluoromethyl)benzyl)oxy)methyl)-5-methylphenyl)-4-oxothiazolidin-2-ylidene)-3-(2-fluoro-4-(1-(4-(trifluoromethyl)phenyl)-1H-1,2,4-triazol-3-yl)phenyl)urea]						A (80-100)	
Cc1ccc(COCC(F)(F)F)c(N2C(=O)CS/C2=N\C(=O)Nc2ccc(-c3ncn(-c4ccnc(OCC(F)(F)F)c4)n3)cc2F)c1 [Compound J750, (Z)-1-(2-Fluoro-4-(1-(2-(2,2,2-trifluoroethoxy)pyridin-4-yl)-1H-1,2,4-triazol-3-yl)phenyl)-3-(3-(5-methyl-2-((2,2,2-trifluoroethoxy)methyl)phenyl)-4-oxothiazolidin-2-ylidene)urea]				50 to 100	50 to 100	A (80-100)	
